# Measured values taken from paper PMC9501280, “Anti-Inflammatory Activity of Soluble Epoxide Hydrolase Inhibitors Based on Selenoureas Bearing an Adamantane Moiety” (International Journal of Molecular Sciences, 2022).
# Entries after “also recorded” stand apart in the source; their conditions may differ.
# How the values were obtained:
# [1] = Cupric reducing antioxidant capacity (CUPRAC); conditions: Trolox equivalents (Trolox = 1); compound 0.5 mM, 30 min
# From the text: (§1) To confirm the SET mechanism, the reducing activity of the compounds was studied using tests CUPRAC (Cupric-Reducing Antioxidant Capacity) and FRAP (Ferric ion-Reducing Antioxidant Power). Unlike the DPPH and ABTS tests, these methods are based only on the ability of substances to act as electron donors. It should be noted that the CUPRAC test has several advantages: the manifestation of activity at a pH close to the physiological value and a favorable redox potential; the method is applicable to both lipophilic and hydrophilic antioxidants. The antioxidant potential of the studied derivatives 4a–g and 5a is estimated in equivalents of the water-soluble analog of vitamin E—Trolox (TEAC—Trolox Equivalent Antioxidant Capacity), the activity of which is taken as the unit ([…] = 1, […] = 1).
# Neocuproine (2,9-dimethyl-1,10-phenanthroline) and Trolox were used with no further purification. The method proposed by Apak et al. was used with slight modifications. For these measurements, 0.05 mL of CuCl2 solution (0.01 M), 0.05 mL of MeOH neocuproine solution (7.5 mM) and 0.05 mL of ammonium acetate buffer solution (1 M) were added to a test tube, followed by mixing with the 0.05 mL tested compounds (0.5 mM). The mixtures were kept at room temperature for 30 min. The absorbance was measured at 450 nm against a reagent blank. The results were presented in Trolox equivalents (Trolox equivalent antioxidant capacity, TEAC) obtained using absorbance data, and the linear calibration curve was plotted as the absorbance vs. Trolox concentration.
# [2] = Ferrous ions (Fe2+) chelating activity (FIC); conditions: compound 5 mM; EDTA taken as 100%
# From the text: One of the most important antioxidant properties of compounds is the ability to chelate transition metal ions, including iron, which participate in the Fenton reaction, forming an active HO^• and H2O2 and contributing to the development of radical processes, respectively, leading to oxidative damage to cells. In this regard, potential antioxidants can act not only as scavengers of active radicals but also have chelating properties. Therefore, the Ferrous Ions Chelating Activity (FIC) of compounds 4a–g and 5a were evaluated in this work by their ability to bind iron(II), which is expressed in a decreased amount of the colored ferrozine complex.
# The chelation of ferrous ions by compounds was estimated by the method of Dinis et al. Briefly, 10 μL of 2 mM FeCl2 was added to 20 μL of the investigated compound (5 mM) and 150 μL of EtOH. The reaction was initiated by the addition of 0.04 mL of 5 mM ferrozine solution. The mixture was left to stand at 35 °C for 10 min. The absorbance of the solution was thereafter measured at 562 nm. The percentage inhibition of ferrozine–Fe^2+ complex formation was calculated as […], where A0 is the absorbance of the control, and As is the absorbance of the compound/standard. Na2EDTA was used as the positive control.
# [3] = Nitric oxide radical scavenging assay (sodium nitroprusside, Griess); conditions: sample solution 0.5 mM, sodium nitroprusside 5 mM, 150 min
# Description: The activity of compounds 4a–g and 5a with respect to NO^• generated from sodium nitroprusside, which further interacts with dissolved oxygen to form nitrite ions measured using the Griss reagent, was investigated.
# Sodium nitroprusside (SNP) dissolved in aqueous solution at physiological pH 7.2 can generate nitric oxide whose level can be measured by the Griess reaction. Sample solution (50 µL, 0.5 mM) was mixed with SNP (50 µL, 5 mM) in phosphate buffer at pH 7.4 (0.2 M), followed by an incubation at room temperature for 150 min. Similarly, a blank was prepared by adding the sample solution in phosphate buffer without SNP. Griess reagent (solutions of 0.33% sulfanilic acid and 0.1% N-(1-naphthyl) ethylenediamine (NED) (C12H14N2) in 20% glacial acetic acid; 1:1) (100 µL) was added to the incubated sample and allowed to stand for 30 min. Absorbance values of the blank and samples were measured at 548 nm. The absorbance of the blank was then subtracted from that of the sample. Results were expressed as %inhibition. Inhibition I (%) = [(A0 − A1)/A0] × 100, where A1 is the absorbance in the presence of the testing compound, and A0 is the absorbance of the blank solution. All experiments were performed three times.
# [4] = Ferric-reducing antioxidant power (FRAP); conditions: Trolox equivalents (Trolox = 1)
# From the text: as §1
# The sample solution (0.1 mL) was mixed with 0.1 mL phosphate buffer (0.2 M, pH 6.6) and 0.1 mL potassium ferricyanide (1%). For each test compound, different concentrations of EtOH were used (5, 10, 25, 50, 100, 200 and 250 μM). The resulting mixture was incubated at 50 °C for 20 min. After the incubation period, 0.1 mL trichloroacetic acid (10%), 0.5 mL deionized water and 0.1 mL ferric chloride (0.1%) were added to the mixture. The sample absorbance was read at 700 nm with a 96-cell microplate spectrophotometer. The reduction of Fe (III) to Fe (II) could be expressed as % inhibition or the equivalent of a standard compound (e.g., Trolox).
# [5] = ABTS radical cation scavenging
# Description: Thus, at the further steps, the complex investigation of the target compounds’ ability to interact with protons, electrons, and radicals was conducted.
SMILES,TEACCUPRAC [1],% Inhibition FIC [2],% Inhibition NO• [3],melting point,TEACFRAP [4],% Inhibition ABTS+• [5]
"[Se]=C(Nc1ccccc1)NC12CC3CC(CC(C3)C1)C2 [4a, 1-(Adamantan-1-yl)-3-phenylselenourea]",1.07 ± 0.11,13.6 ± 0.04%,non active,202 to 203 °C,0.93 ± 0.06,–
"[Se]=C(NCC12CC3CC(CC(C3)C1)C2)Nc1ccccc1 [4b, 1-[(Adamantan-1-yl)methyl]-3-phenylselenourea]",3.04 ± 0.11,14.15 ± 2.27%,20.57 ± 1.42%,197 to 198 °C,1.14 ± 0.03,53.01 ± 1.62%
"CC(NC(=[Se])Nc1ccccc1)C12CC3CC(CC(C3)C1)C2 (centres unmarked) [4c, 1-[1-(Adamantan-1-yl)ethyl]-3-phenylselenourea]",3.39 ± 0.11,21.90 ± 1.88%,54.35 ± 2.38%,–,1.81 ± 0.08,77.44 ± 1.78%
"[Se]=C(NCCC12CC3CC(CC(C3)C1)C2)Nc1ccccc1 [4d, 1-[2-(Adamantan-1-yl)ethyl]-3-phenylselenourea]",3.29 ± 0.12,not established; also recorded: non active,31.36 ± 2.48%,141 to 142 °C,1.32 ± 0.01,64.55 ± 2.30%
"[Se]=C(Nc1ccccc1)Nc1ccc(C23CC4CC(CC(C4)C2)C3)cc1 [4e, 1-[4-(Adamantan-1-yl)phenyl]-3-phenylselenourea]",0.99 ± 0.05,not established; also recorded: non active,2.63 ± 0.99%,163 to 164 °C,1.13 ± 0.14,–
"CC12CC3CC(C)(C1)CC(NC(=[Se])Nc1ccccc1)(C3)C2 [4f, 1-(3,5-Dimethyladamantan-1-yl)-3-phenylselenourea]",0.22± 0.01,26.20 ± 3.20%,7.27 ± 0.72%,142 to 143 °C,0.57 ± 0.04,do not exhibit antiradical properties; also recorded: nonactive
"[Se]=C(Nc1ccccc1)NC1C2CC3CC(C2)CC1C3 (centres unmarked) [4g, 1-(Adamantan-2-yl)-3-phenylselenourea]",2.48 ± 0.16,19.74 ± 1.57%,27.91 ± 1.50%,187 to 188 °C,1.39 ± 0.03,47.21 ± 1.20%
"[Se]=C(NCc1ccccc1)NC12CC3CC(CC(C3)C1)C2 [5a, 1-(Adamantan-1-yl)-3-benzylselenourea]",1.62 ± 0.4,not established; also recorded: non active,non active,157 to 158 °C,1.19 ± 0.04,–
